From patent US20160046616A1, “NRF2 SMALL MOLECULE INHIBITORS FOR CANCER THERAPY” (THE JOHNS HOPKINS UNIVERSITY, priority 2013, published 2016) come the findings set out here.

In test [1] the test system is H1437 NRF2-ARE-Fluc stable cell line. Description: H1437 Nrf2 assay: NRF2-ARE firefly luciferase reporter gene assay. Format: cell-based. To be noted: read-out: Potency of inhibition, H1437. On the technique in general: A reporter such as luciferase makes a cellular process visible.
Test [2] relates to A549 NRF2-ARE-Fluc stable cell line. Description: A549 Nrf2 assay: NRF2-ARE firefly luciferase reporter gene assay. Conditions: read-out: Potency of inhibition, A549. The format is cell-based. The procedure, abridged:
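A549 cells (Keap1 loss-of-function, constitutive NRF2) stably carrying ARE-driven firefly luciferase; compound treatment 18–24 h at 37 °C, 0.46% DMSO final.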

Setting [3] is: Homo sapiens, NCI-H1437, H1437 NRF2-ARE-Fluc stable cell line.

Molecules are shown by their SMILES. Like-named read-outs stand apart in the source and are kept apart here. Where only a bound is given, the exact number is not on record here.

Take `Cc1ccccc1C(=O)Nc1ccc(-c2cccc(NC(=O)Cc3ccccc3)n2)cc1` [Compound 71]: the IC50 was more than 25 µM in test [1] (setting [3]) and 5 to 25 µM in test [2] (Homo sapiens).
As for `O=C(Nc1ccc(OC(F)(F)F)cc1)c1ccc(CN2CCc3ccccc3C2)cc1` [compound 178], the IC50 in test [1] (setting [3]) and in test [2] (Homo sapiens) was less than 5 µM each time.
As for `Cc1ccncc1C(=O)N1CCc2cc(-c3nc(NC(=O)Cc4ccc5c(c4)OCO5)sc3C)ccc21` [Compound 140], the IC50 in test [1] (setting [3]) and in test [2] (Homo sapiens) was less than 5 µM in each case.
Take `Cc1ccccc1S(=O)(=O)N1CCc2cc(-c3nc(NC(=O)Cc4ccc(Cl)cc4)sc3C)ccc21` [Compound 135]: the results for the IC50 in test [1] (setting [3]) and in test [2] (Homo sapiens) were 5 to 25 µM and less than 5 µM, respectively.
For `O=C(Nc1cccc(Cc2ccccc2)n1)c1ccc(-c2cccc([N+](=O)[O-])c2)o1` [Compound 142] the same measures were more than 25 µM and 5 to 25 µM.
As to `O=C(Nc1ncc(Cc2cccc(C(F)(F)F)c2)s1)c1ccc(-c2cccc([N+](=O)[O-])c2)o1` [Compound 20], the IC50 in test [1] (setting [3]) is less than 5 µM; in test [2] (Homo sapiens), 5 to 25 µM.
For the compound `O=C(Nc1ncc(Cc2ccccc2Cl)s1)c1ccn(-c2ccccc2)n1` [Compound 216], the IC50 in test [1] (setting [3]) and in test [2] (Homo sapiens) was 5 to 25 µM each time.
As to `Cc1sc(NC(=O)Cc2ccc3c(c2)OCO3)nc1-c1ccc2c(c1)CCN2C(=O)CN(C)C` [Compound 180], the IC50 was more than 25 µM in test [1] (setting [3]) and 5 to 25 µM in test [2] (Homo sapiens).
`O=C(Nc1ccc(Cl)c(S(=O)(=O)N2CCOCC2)c1)c1ccc(S(=O)(=O)N2CCOCC2)cc1` [compound 55]: the IC50 in test [1] (setting [3]) and in test [2] (Homo sapiens) was less than 5 µM in each case.
As for `O=C(Nc1ncc(Cc2cccc(F)c2)s1)c1ccn(-c2ccccc2)n1` [Compound 218], the values for the IC50 in test [1] (setting [3]) and in test [2] (Homo sapiens) were less than 5 µM and 5 to 25 µM, respectively.
As for `CC(=O)N1CCc2cc(-c3nc(NC(=O)Cc4ccc5c(c4)OCO5)sc3C)ccc21` [Compound 21], the IC50 in test [1] (setting [3]) is 5 to 25 µM; in test [2] (Homo sapiens) it was less than 5 µM.
Consider `Cc1cccc(Cn2ccc(C(=O)Nc3ncc(Cc4ccc(C(F)(F)F)cc4)s3)n2)c1` [Compound 189], for which the IC50 in test [1] (setting [3]) is less than 5 µM; in test [2] (Homo sapiens) it was 5 to 25 µM.
On to `O=C(Nc1ncc(CN2CCOCC2)s1)c1ccc(-c2cccc([N+](=O)[O-])c2)o1` [Compound 81], for which the IC50 in test [1] (setting [3]) and in test [2] (Homo sapiens) was 5 to 25 µM throughout.
As for `O=C(Nc1ncc(Cc2ccccc2)s1)c1ccc(-c2cccc([N+](=O)[O-])c2)o1` [Compound 16], the IC50 in test [1] (setting [3]) and in test [2] (Homo sapiens) was 5 to 25 µM in each case.
On to `O=C(Cc1ccccc1)Nc1cncc(Cl)n1` [Compound 105, N-(6-chloropyrazin-2-yl)-2-phenylacetamide], for which the IC50 in test [1] (setting [3]) and in test [2] (Homo sapiens) was more than 25 µM in each case.
In the case of `Cc1ccccc1S(=O)(=O)N1CCc2cc(-c3nc(NC(=O)Cc4ccccc4C(F)(F)F)sc3C)ccc21` [Compound 129], the IC50 was more than 25 µM in test [1] (setting [3]) and less than 5 µM in test [2] (Homo sapiens).
With `Cc1ccc(Cc2cnc(NC(=O)c3ccn(-c4ccccc4)n3)s2)o1` [Compound 213], the IC50 in test [1] (setting [3]) and in test [2] (Homo sapiens) was 5 to 25 µM each time.
Regarding `COCCN(C)S(=O)(=O)c1ccc(NC(=O)c2ccc(CN3CCc4ccccc4C3)cc2)cc1` [compound 174], the IC50 in test [1] (setting [3]) was more than 25 µM; in test [2] (Homo sapiens), less than 5 µM.
For the compound `Cc1sc(NC(=O)Cc2ccc3c(c2)OCO3)nc1-c1ccc2c(c1)CCN2C(=O)c1ccccc1Cl` [Compound 116], the IC50 in test [1] (setting [3]) was more than 25 µM; in test [2] (Homo sapiens), less than 5 µM.
Take `Cc1cccc(C(=O)N2CCc3cc(-c4nc(NC(=O)Cc5ccc6c(c5)OCO6)sc4C)ccc32)c1` [Compound 29]: the IC50 in test [1] (setting [3]) was 5 to 25 µM; in test [2] (Homo sapiens) it was more than 25 µM.
Take `Cc1ccc(NC(=O)COc2ccccc2C(N)=O)cc1S(=O)(=O)N1CCCCCC1` [Compound 45]: the IC50 in test [1] (setting [3]) and in test [2] (Homo sapiens) was less than 5 µM throughout.
Take `O=C(Nc1cccc(Nc2ccccc2)c1)c1ccc(-c2cccc([N+](=O)[O-])c2)o1` [Compound 137]: the IC50 in test [1] (setting [3]) was more than 25 µM; in test [2] (Homo sapiens) it was less than 5 µM.
`Cc1sc(NC(=O)Cc2ccc3c(c2)OCO3)nc1-c1ccc2c(c1)CCN2C(=O)c1sccc1Cl` [Compound 186]: the IC50 in test [1] (setting [3]) and in test [2] (Homo sapiens) was less than 5 µM each time.
Regarding `O=C(Nc1ncc(Cc2ccc(C(F)(F)F)cc2)s1)c1ccc(-c2ccccc2)o1` [Compound 19], the IC50 is more than 25 µM in test [1] (setting [3]) and 5 to 25 µM in test [2] (Homo sapiens).
As to `Cc1nc(C(=O)N2CCc3cc(-c4nc(NC(=O)Cc5ccc6c(c5)OCO6)sc4C)ccc32)c(C)o1` [Compound 157], the IC50 in test [1] (setting [3]) and in test [2] (Homo sapiens) was less than 5 µM throughout.
For the compound `Cc1ccccc1S(=O)(=O)N1CCc2cc(-c3nc(NC(=O)Cc4ccncc4)sc3C)ccc21` [Compound 136], the IC50 in test [1] (setting [3]) and in test [2] (Homo sapiens) was less than 5 µM each time.
Consider `Cc1ccccc1S(=O)(=O)N1CCc2cc(-c3nc(NC(=O)Cc4ccc(C(F)(F)F)cc4)sc3C)ccc21` [Compound 134], for which the IC50 in test [1] (setting [3]) is more than 25 µM; in test [2] (Homo sapiens), less than 5 µM.
For `O=C(Nc1ncc(Cc2ccc(C(F)(F)F)cc2)s1)c1cccc(-c2ccccc2)c1` [Compound 59], the IC50 is more than 25 µM in test [1] (setting [3]) and 5 to 25 µM in test [2] (Homo sapiens).
For `Cc1ccccc1C(=O)N1CCc2cc(-c3nc(NC(=O)CN4CCOCC4)sc3C)ccc21` [Compound 77] the same measures were 5 to 25 µM and 5 to 25 µM.
In the case of `O=C(Cc1ccccc1)Nc1cccc(-c2cnc3[nH]ccc3c2)n1` [Compound 88, N-(6-(1H-pyrrolo[2,3-b]pyridin-5-yl)pyridin-2-yl)-2-phenylacetamide], the IC50 in test [1] (setting [3]) was more than 25 µM; in test [2] (Homo sapiens), 5 to 25 µM.
On to `O=C(Nc1ncc(Cc2ccc(C(F)(F)F)cc2)s1)c1ccc(Br)o1` [Compound 98], for which the IC50 in test [1] (setting [3]) and in test [2] (Homo sapiens) was 5 to 25 µM throughout.
For the compound `CN(C(=O)c1ccc(CN2CCc3ccccc3C2)cc1)c1ccc(S(=O)(=O)N2CCOCC2)cc1` [compound 225], the IC50 was more than 25 µM in test [1] (setting [3]) and 5 to 25 µM in test [2] (Homo sapiens).
For the compound `O=C(CCCc1ccccc1)Nc1ncc(Cc2ccc(C(F)(F)F)cc2)s1` [Compound 108], the IC50 in test [1] (setting [3]) and in test [2] (Homo sapiens) was more than 25 µM throughout.
Take `Cc1ccccc1C(=O)N1CCc2cc(-c3nc(NC(=O)Cc4ccc(F)c(F)c4)sc3C)ccc21` [Compound 12]: the IC50 in test [1] (setting [3]) and in test [2] (Homo sapiens) was less than 5 µM throughout.
Consider `Cc1cc(Cn2ccc(C(=O)Nc3ncc(Cc4ccc(C(F)(F)F)cc4)s3)n2)ccn1` [Compound 191], for which the IC50 in test [1] (setting [3]) and in test [2] (Homo sapiens) was less than 5 µM in each case.
As to `O=C(Nc1ccc(Cl)c(S(=O)(=O)N2CCOCC2)c1)c1ccccc1` [compound 62], the IC50 in test [1] (setting [3]) and in test [2] (Homo sapiens) was 5 to 25 µM throughout.
Consider `CCN(CC)C(=O)c1ccc(S(=O)(=O)N2CCC(c3nc4ccccc4s3)CC2)cc1` [Compound 37], for which the IC50 in test [1] (setting [3]) and in test [2] (Homo sapiens) was less than 5 µM throughout.
Consider `O=C(Nc1ccc(C(=O)N2CCOCC2)cc1)c1ccc(CN2CCc3ccccc3C2)cc1` [compound 147], for which the values for the IC50 in test [1] (setting [3]) and in test [2] (Homo sapiens) were more than 25 µM and 5 to 25 µM, respectively.
For `O=C(Nc1ncc(Cc2ccc(C(F)(F)F)cc2)s1)c1ccc(-c2ccccc2)s1` [Compound 83] the same measures were more than 25 µM and more than 25 µM.
On to `Cc1ccccc1S(=O)(=O)N1CCc2cc(-c3nc(NC(=O)Cc4cccc(F)c4)sc3C)ccc21` [Compound 126], for which the IC50 in test [1] (H1437 NRF2-ARE-Fluc stable cell line) was more than 25 µM; in test [2], less than 5 µM.
`CN(Cc1ccccc1)Cc1ccc(C(=O)Nc2ccc(S(=O)(=O)N3CCOCC3)cc2)cc1` [compound 168]: the IC50 in test [1] (setting [3]) and in test [2] (Homo sapiens) was less than 5 µM in each case.
Consider `O=C(Cc1ccccc1)Nc1cccc(-c2ccc(N3CCOCC3)cc2)n1` [Compound 78], for which the IC50 in test [1] (setting [3]) and in test [2] (Homo sapiens) was more than 25 µM in each case.
Turning to `Cc1ccccc1C(=O)N1CCc2cc(-c3cccc(NC(=O)Cc4ccc5c(c4)OCO5)n3)ccc21` [Compound 28], the IC50 in test [1] (setting [3]) was more than 25 µM; in test [2] (Homo sapiens), 5 to 25 µM.
For `Cc1ccccc1C(=O)n1ncc2cc(-c3cccc(NC(=O)Cc4ccccc4)n3)ccc21` [Compound 95] the same measures were 5 to 25 µM and less than 5 µM.
For the compound `Cc1ccccc1C(=O)N1CCc2cc(N3CCC(N)C3)ccc21` (stereo not drawn) [Compound 93, (5-(3-aminopyrrolidin-1-yl)indolin-1-yl)(o-tolyl)methanone], the IC50 is more than 25 µM in test [1] (setting [3]) and 5 to 25 µM in test [2] (Homo sapiens).
As for `Cc1occc1C(=O)N1CCc2cc(-c3nc(NC(=O)Cc4ccc5c(c4)OCO5)sc3C)ccc21` [Compound 159], the IC50 in test [1] (setting [3]) and in test [2] (Homo sapiens) was less than 5 µM throughout.
For the compound `Cc1ccccc1C(=O)N1CCc2cc(-c3nc(NC(=O)Cc4cccc(OCCOCCOCCNC(=O)OC(C)(C)C)c4)sc3C)ccc21` [Compound 237, tert-butyl (2-(2-(2-(3-(2-((5-methyl-4-(1-(2-methylbenzoyl)indolin-5-yl)thiazol-2-yl)amino)-2-oxoethyl)phenoxy)ethoxy)ethoxy)ethyl)carbamate], the IC50 in test [1] (setting [3]) and in test [2] (Homo sapiens) was less than 5 µM each time.
For `CC1CN(S(=O)(=O)c2ccc(NC(=O)c3ccc(CN4CCc5ccccc5C4)cc3)cc2)CCO1` (stereo not drawn) [compound 169], the IC50 in test [1] (setting [3]) and in test [2] (Homo sapiens) was less than 5 µM each time.
`O=C(Nc1ccc(S(=O)(=O)N2CCOCC2)cc1)c1cccc(CN2CCc3ccccc3C2)c1` [Compound 211]: the IC50 in test [1] (setting [3]) and in test [2] (Homo sapiens) was 5 to 25 µM in each case.
For the compound `Cc1ccccc1C(=O)N1CCc2cc(-c3nc(NC(=O)CN4CCCCC4)sc3C)ccc21` [Compound 66], the IC50 in test [1] (setting [3]) and in test [2] (Homo sapiens) was 5 to 25 µM each time.
Consider `COc1ccc(CC(=O)Nc2nc(-c3ccc4c(c3)CCN4C(=O)C3CC3C)c(C)s2)cc1` (stereo not drawn) [Compound 208], for which the IC50 in test [1] (setting [3]) and in test [2] (Homo sapiens) was less than 5 µM each time.
